Test results: PubChem BioAssay AID1918954 (Molecular Pharmacology Branch, DTP, NCI, 2023)
“And” between values parts separate entries of the source, which are not always exact repeats. Identical values can stand only once.

Test system: MDA-MB-468 complex spheroids with HUVEC/MSC, viability
Experiment: Anticancer human tumor MDA-MB-468 cell line growth inhibition;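 further: spheroids exposed to agents for seven days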;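 on viability, T/C: 100% = DMSO vehicle control viability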
Details: for viability, T/C: stronger effect = lower value
Description: Multicellular complex tumor spheroid response to LSD1 Inhibitor Iadademstat in combination with a variety of drugs and investigational agents in selected tumor cell lines
The current study was undertaken to assess response to LSD1 inhibitors in combination with standard-of-care drugs and investigational agents in solid tumor complex spheroid models as well as in the K-562 leukemia. Complex spheroids include a stromal component modeled by human endothelial cells (HUVEC) and fibroblasts modeled by human mesenchymal stem cells (MSCs). The concentration ranges selected for each drug and investigational agent were based upon clinically achievable concentrations if the clinical Cmax of the agent was known.
Compounds. The drugs and investigational agents used in this study are listed on Table 1. All of the agents used, including staurosporine (NSC755774) and gemcitabine (NSC613327), were obtained from the Developmental Therapeutics Program, NCI. FDA-approved anticancer drugs are available from the NCI at http://dtp.nci.nih.gov/branches/dscb/oncology_drugset_explanation.html. Drugs and investigational agents were >95% pure by proton nuclear magnetic resonance (NMR) and liquid chromatography/mass spectrometry (LC/MS). Stock solutions were prepared at 400x in DMSO, stored at -70 degrees C, and diluted in fresh medium prior to their use. The final concentration of DMSO in cell culture wells never exceeded 0.25% (v/v). The FDA-approved anticancer drug set is available from the Developmental Therapeutics Program at https://dtp.cancer.gov/organization/dscb/obtaining/available_plates.htm. All drugs and investigational agents were tested over a range starting from a high concentration at or near the clinical Cmax and decreasing in half-log increments. If the clinical Cmax for an agent had not been determined, the highest concentration tested was 10 microM.
Cell Lines. The patient-derived cancer cell (PDC) lines: 292921-168-R-J2-PDC, K24384-001-R-PDC, and 521955-158-R2-J5-PDC pancreatic carcinomas, 556581-035-R-J1 ovarian carcinoma, 324938-238-R-J1-PDC, 855422-203-R-J1-PDC and 883617-216-R-J1-PDC urothelial bladder carcinomas, 743489-274-T-PDC renal cell carcinoma, 138582-R-J1 Merkel cell tumor, K60290-347-R-J1 and K57222-313-R-J1-PDC glioblastomas, 653999-131-R-J2-PDC, LG0703-F948-PDC, and 349418-098-R-PDC non-small cell lung carcinomas, 885512-296-R-J2-PDC, 171881-019-R-J1-PDC breast carcinomas and 186277-243-T-J2-PDC and 233499-124-R-J2-PDC colon carcinomas were obtained from the NCI Patient-Derived Models Repository (PDMR, https://pdmr.cancer.gov). The established cell lines NCI/ADR-RES (RRID:CVCL_14520 and OVCAR-5 (RRID:CVCL_1628) ovarian carcinomas, 786-O (RRID:CVCL_1051) and A498 (RRID:CVCL_A498) renal cell carcinoma, NCI-H211 (ATCC, cat. CRL-5824; RRID:CVCL_1529), NCI-H196 (ATCC, cat. CRL-5823, RRID:CVCL_1509), SW 1271 (ATCC, cat. CRL-2177, RRID:CVCL_1716) and NCI-H1876 (ATCC, cat. CRL-5902, RRID:CVCL_1503) small cell lung carcinomas, MDA-MB-231 (RRID:CVCL_0062) and MDA-MB-468 (RRID:CVCL_0419)breast carcinomas (10-12). Pooled donor human umbilical vein endothelial cells (HUVEC, Lonza, cat. CC-2519) and human mesenchymal stem cells (hMSC, Lonza, cat. PT-2501) were purchased from Lonza (Walkersville, MD).
Cell Culture. All cells were maintained in an incubator at 37 degrees C and 5% CO2 with 95% humidity. The PDC lines were cultured according to standard operating procedures established by the NCI PDMR (https://pdmr.cancer.gov). Briefly all PDCs were thawed and cultured in Matrigel-coated flasks prepared with a working solution of 1X Ham's F-12 nutrient mix, without supplementation (Invitrogen, Waltham, MA, cat. 11765054), 100 U/mL penicillin-streptomycin (Invitrogen, cat. 15140122), and 2.5% Matrigel (Corning Inc., Corning, NY, cat. 354248) for the first three passages. […]

Compound	viability, T/C (compound 0.0316 µM)	viability, T/C (compound 0.1 µM)	viability, T/C (compound 0.316 µM)	viability, T/C (compound 1 µM)	IC50 (curve of compound)	viability, T/C (compound 0.00949 µM)	viability, T/C (compound 0.03 µM)	viability, T/C (compound 0.0949 µM)	viability, T/C (compound 0.3 µM)	other results
COc1ccc([C@@H](O)c2cc(-c3ncnc4cc(N5CCOCC5)ccc34)c(F)cc2Cl)nn1	91.7% and 90.3%	86.8% and 90.4%	82.5% and 71.8%	58.3% and 51%	1.48 µM and 1.13 µM	–	–	–	–	viability, T/C (compound 3.16 µM): 32.1% and 29.9%; viability, T/C (compound 10 µM): 14% and 6.59%
Cn1ncnc1C1c2n[nH]c(=O)c3cc(F)cc(c23)NC1c1ccc(F)cc1 (stereo unspecified)	61.2% and 64.5%	60.7% and 50.9%	–	–	> 0.1 µM	–	–	–	–	viability, T/C (compound 0.000316 µM): 103% and 96.9%; viability, T/C (compound 0.001 µM): 86.7% and 79.6%; viability, T/C (compound 0.00316 µM): 77.2% and 65.3%; viability, T/C (compound 0.01 µM): 72% and 75%
NC1CC1c1ccc(-c2cccc(O)c2)cc1 (stereo unspecified)	–	–	–	–	–	–	–	–	–	IC50 (compound alone, run of 02/01/2022): > 10 µM
NC1CCC(NC2CC2c2ccccc2)CC1 (stereo unspecified)	–	–	96.4% and 88.1% and 98.6%	–	–	–	–	–	–	IC50 (compound alone, run of 01/24/2022): > 10 µM and 9.57 µM
NS(=O)(=O)OCC1CC(n2ccc3c(NC4CCc5ccccc54)ncnc32)CC1O (stereo unspecified)	–	–	–	–	0.0315 µM and 0.012 µM	67.5% and 55.7%	52.1% and 28.4%	19.3% and 11.1%	12.9% and 5.49%	viability, T/C (compound 0.949 µM): 6.45% and 3.24%; viability, T/C (compound 3 µM): 3.84% and 2.08%
Nc1ccccc1NC(=O)c1ccc(CNC(=O)OCc2cccnc2)cc1	–	–	–	–	0.145 µM and 0.0743 µM	98.7% and 100%	99.5% and 103%	70.2% and 36.1%	14.8% and 2.86%	viability, T/C (compound 0.949 µM): 3.01% and 0.37%; viability, T/C (compound 3 µM): 1.7% and 0.2%
Nc1ccn(C2OC(CO)C(O)C2(F)F)c(=O)n1 (stereo unspecified)	–	–	–	–	< 0.000949 µM	5.5% and 5.58%	5.68% and 4.46%	5.72% and 4.42%	5.93% and 4.29%	viability, T/C (compound 0.003 µM): 6.32% and 18.5%
Nc1ncn(C2CC(O)C(CO)O2)c(=O)n1 (stereo unspecified)	23.6% and 31.2%	15% and 14.6%	12.6% and 11%	12% and 8.85%	0.0136 µM and 0.0173 µM	–	–	–	–	viability, T/C (compound 0.00316 µM): 81.4% and 94.2%; viability, T/C (compound 0.01 µM): 59.5% and 67%
Nc1ncn(C2CC(O)C(CO)S2)c(=O)n1 (stereo unspecified)	–	–	–	–	0.12 µM and 0.0355 µM	75.2% and 70.6%	73.4% and 52%	53.9% and 36.5%	34.9% and 20.4%	viability, T/C (compound 0.000949 µM): 79.6% and 100%; viability, T/C (compound 0.003 µM): 74.9% and 93.2%
O=C(C=Cc1cccc(S(=O)(=O)Nc2ccccc2)c1)NO	–	–	–	–	0.0756 µM and 0.052 µM	80.6% and 78.8%	72.8% and 67.2%	44.4% and 25.1%	17.5% and 2.5%	viability, T/C (compound 0.949 µM): 4.34% and 0.22%
O=C(C=Cn1cnc(-c2cc(C(F)(F)F)cc(C(F)(F)F)c2)n1)NNc1cnccn1	8.39% and 16.7%	3.01% and 3.24%	2.33% and 1.39%	1.59% and 0.94%	< 0.00316 µM	–	–	–	–	viability, T/C (compound 0.00316 µM): 39.9% and 36.5%; viability, T/C (compound 0.01 µM): 29.8% and 27.9%
O=C(c1cc(Cc2n[nH]c(=O)c3ccccc23)ccc1F)N1CCN(C(=O)C2CC2)CC1	94.3% and 76.8%	73.5% and 79.1%	75% and 69.3%	52.9% and 52.6%	0.989 µM and 1.05 µM	–	–	–	–	viability, T/C (compound 3.16 µM): 21.7% and 20.2%; viability, T/C (compound 10 µM): 22.6% and 21.4%
